Earlier results on 2 compounds are cited in patent publication US20030198619A1, “Formulation and dosage form for increasing oral bioavailability of hydrophilic macromolecules” (priority 2001, published 2003).

Where two headings read alike, the source gives them in different places.

The conditions of data set [1]: in vivo.

Take pentosan polysulfate sodium [PPS]: the “elimination half-life in urine” value (after oral administration) was 4.8 h. In addition, under “in humans”, the oral bioavailability entry is “approximately 3%”. Besides, for the setting “mean value following IV injection”, the elimination half-life was 24 h.
As for `NC(=O)CC[C@@H]1NC(=O)[C@H](Cc2ccccc2)NC(=O)[C@H](Cc2ccc(O)cc2)NC(=O)CCSSC[C@@H](C(=O)N2CCC[C@H]2C(=O)N[C@H](CCCN=C(N)N)C(=O)NCC(N)=O)NC(=O)[C@H](CC(N)=O)NC1=O` [dDAVP, Desmopressin], the oral bioavailability entry in data set [1] is reported as “about 0.15%”.
